These results are taken from publication PMC12584752, “Covalent fragment screening to inhibit the E3 ligase activity of bacterial NEL enzymes SspH1 and SspH2” (RSC Chemical Biology, 2025).

Assay type in all cases: binding
What all share (conditions): dilution series 100–6.25 μM, 24 hours at 4 °C

One experiment has as its target T1, IpaH9.8 (21–545) (Shigella flexneri, UniProt Q8VSC3).
T1 construct: Recombinant IpaH9.8 (21–545) and SspH1 (161–700) were incubated at 0.5 μM; His-tag (N, cleaved yes); made in house; host or cells: E. coli BL21
Nature of the experiment: Intact protein LC-MS covalent fragment labelling. An excerpt: A diverse library of 227 compounds with chloroacetamide warheads, featuring a diversity of molecular weight (162–321 Da) and clog P (−1.4 to 3.4) (Table S1), were screened against Salmonella and Shigella NEL E3 ligases using our intact protein liquid chromatography mass spectrometry (LC-MS) platform as previously described.[39,40] Briefly, recombinant SspH1 (161–700[30]) and IpaH9.8 (21–545[29]) (Fig. […] 1C). Raw counts were deconvoluted and the labelling percentage calculated by detection and comparison of protein and protein-fragment molecular weights.
Fig. 1 Intact protein LCMS screening of covalent fragment library against NEL proteins. (A) Cartoon depicting conserved NEL E3 ligase domains; (B) overlaid structures of SspH1 (blue, PDB 9H6W[30]) and IpaH9.8 (green, PDB 6LOL[29]) aligned on NEL domain; (C) workflow of covalent fragment screening using intact LC-MS; (D) fragment labelling percentages for SspH1 and IpaH9.8 with fragments 1–3 highlighted. […]
To mitigate the risk of selecting compounds which indiscriminately recognise ubiquitin binding proteins, we next performed preliminary selectivity studies with compounds 6 and 7 against human ubiquitin system proteins. […] In parallel, we tested the compounds against related NEL E3 ligases SspH2 and IpaH9.8. […]

The next experiment has as its target T2, SspH2 (Salmonella typhimurium, UniProt D0ZPH9).
T2 construct: Recombinant SspH1 (aa 161–700) and SspH2 (aa 166–783) were both characterised; His-tag (N, cleaved yes); made in house; host or cells: E. coli BL21
The experiment can be described thus: Intact LC-MS labelling dilution series. The procedure: Fig. 3 Validation of HTC hit compounds by intact MS. Labelling heatmaps of dilution series (100–6.25 μM) of compounds 4–10 with (A) WT SspH1 and (B) C492K SspH1. Labelling heatmaps of dilution series of (C) compound 6 and (D) compound 7 with bacterial and human ubiquitin binding proteins. Recombinant proteins were incubated at either 1.0 or 0.5 μM with 50 μM fragments for 24 hours at 4 °C, before fragment labelling was analysed by intact LC-MS. Bacterial proteins are shown in bold and human proteins in italic fonts. (E)–(H) Kinetics analyses: time courses (0–12 hours) of compound labelling (100–1.56 μM) of SspH1 and SspH2 (0.5 μM) for (E) SspH1 and compound 7, and (F) SspH2 and compound 6. Measurements were performed in technical triplicates. Labelling percentages were plotted against time in GraphPad Prism v.10, and curves fitted separately for each replicate using one-phase association, with constraints Y0 = 0 and plateau = highest labelling percentage. Graphs for SspH1 and compound 6, and SspH2 and compound 7 are shown in Fig. S4A and B. Rate constants (kobs, as given by Graphpad Prism calculated K values) were plotted against fragment concentration in triplicate for (G) SspH1 and (H) SspH2. Straight lines were fitted with constraint Yintercept = 0. For SspH2 kinetics, 100 μM kobs was outside the linear range. […]

The next experiment concerns the target T3, HECT-type E3 UBE3C (Homo sapiens, UniProt Q15386).
T3 construct: UBE3C; 693–1083; His-tag (N, cleaved yes); made in house; host or cells: E. coli BL21
T3 sequence (Q15386 693-1083): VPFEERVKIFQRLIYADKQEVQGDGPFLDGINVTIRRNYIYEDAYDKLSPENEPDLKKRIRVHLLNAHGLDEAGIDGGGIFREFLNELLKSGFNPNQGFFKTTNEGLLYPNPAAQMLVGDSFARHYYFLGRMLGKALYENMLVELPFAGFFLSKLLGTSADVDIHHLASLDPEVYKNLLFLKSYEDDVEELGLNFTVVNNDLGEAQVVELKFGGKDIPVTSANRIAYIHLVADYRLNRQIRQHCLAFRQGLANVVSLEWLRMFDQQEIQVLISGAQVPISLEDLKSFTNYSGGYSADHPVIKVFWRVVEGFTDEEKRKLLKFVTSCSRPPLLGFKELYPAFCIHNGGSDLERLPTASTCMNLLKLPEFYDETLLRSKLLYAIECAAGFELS
The experiment can be described thus: Intact LC-MS labelling selectivity. The procedure:
(§1) Fig. 3 Validation of HTC hit compounds by intact MS. Labelling heatmaps of dilution series (100–6.25 μM) of compounds 4–10 with (A) WT SspH1 and (B) C492K SspH1. Labelling heatmaps of dilution series of (C) compound 6 and (D) compound 7 with bacterial and human ubiquitin binding proteins. Recombinant proteins were incubated at either 1.0 or 0.5 μM with 50 μM fragments for 24 hours at 4 °C, before fragment labelling was analysed by intact LC-MS. Bacterial proteins are shown in bold and human proteins in italic fonts. (E)–(H) Kinetics analyses: time courses (0–12 hours) of compound labelling (100–1.56 μM) of SspH1 and SspH2 (0.5 μM) for (E) SspH1 and compound 7, and (F) SspH2 and compound 6. Measurements were performed in technical triplicates. Labelling percentages were plotted against time in GraphPad Prism v.10, and curves fitted separately for each replicate using one-phase association, with constraints Y0 = 0 and plateau = highest labelling percentage. Graphs for SspH1 and compound 6, and SspH2 and compound 7 are shown in Fig. S4A and B. Rate constants (kobs, as given by Graphpad Prism calculated K values) were plotted against fragment concentration in triplicate for (G) SspH1 and (H) SspH2. Straight lines were fitted with constraint Yintercept = 0. For SspH2 kinetics, 100 μM kobs was outside the linear range.
(§2) To mitigate the risk of selecting compounds which indiscriminately recognise ubiquitin binding proteins, we next performed preliminary selectivity studies with compounds 6 and 7 against human ubiquitin system proteins. […] In parallel, we tested the compounds against related NEL E3 ligases SspH2 and IpaH9.8. […] Our identification of dual SspH1 and SspH2 ligands is likely due to the high protein sequence similarity of SspH1 and SspH2 (60% for full length; 78% for NEL domains).
(§3) Dilution series experiments were performed as for 1st round screening. 1 μM OTUD4, OTUD5 or 0.5 μM HOIL, UbcH5A, SspH2, SspH1 C492K were incubated with 100–6.25 μM compounds for 24 hours at 4 °C, in 25 mM HEPES pH 7.5, 50 mM NaCl buffer. Intact protein LC-MS was performed as previously described.[40] The following deconvolution conditions were used for recombinant proteins studied in this work: […]

The target in a further experiment is T4, RBR-type E3 HOIL (Homo sapiens, UniProt Q9BYM8).
T4 construct: HOIL aa 1–510; His-tag (N, cleaved yes); made in house; host or cells: E. coli BL21
T4 sequence (Q9BYM8 1-510): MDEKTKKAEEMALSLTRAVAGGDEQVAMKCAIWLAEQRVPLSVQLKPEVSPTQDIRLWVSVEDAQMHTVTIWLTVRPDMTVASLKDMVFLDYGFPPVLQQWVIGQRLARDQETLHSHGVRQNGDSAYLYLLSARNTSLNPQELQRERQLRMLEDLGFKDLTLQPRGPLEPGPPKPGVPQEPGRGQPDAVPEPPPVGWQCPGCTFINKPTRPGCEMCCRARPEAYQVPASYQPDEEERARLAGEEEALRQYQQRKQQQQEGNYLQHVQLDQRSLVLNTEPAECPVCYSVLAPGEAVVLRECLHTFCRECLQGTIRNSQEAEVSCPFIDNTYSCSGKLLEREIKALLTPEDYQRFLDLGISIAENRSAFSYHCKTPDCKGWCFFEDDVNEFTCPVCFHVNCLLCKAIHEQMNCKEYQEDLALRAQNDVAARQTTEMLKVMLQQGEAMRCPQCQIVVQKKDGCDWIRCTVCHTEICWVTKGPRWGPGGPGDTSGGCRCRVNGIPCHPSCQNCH
The experiment can be described thus: Intact LC-MS labelling selectivity. The procedure: as §1, §2, §3

T2 sequence (D0ZPH9 166-783): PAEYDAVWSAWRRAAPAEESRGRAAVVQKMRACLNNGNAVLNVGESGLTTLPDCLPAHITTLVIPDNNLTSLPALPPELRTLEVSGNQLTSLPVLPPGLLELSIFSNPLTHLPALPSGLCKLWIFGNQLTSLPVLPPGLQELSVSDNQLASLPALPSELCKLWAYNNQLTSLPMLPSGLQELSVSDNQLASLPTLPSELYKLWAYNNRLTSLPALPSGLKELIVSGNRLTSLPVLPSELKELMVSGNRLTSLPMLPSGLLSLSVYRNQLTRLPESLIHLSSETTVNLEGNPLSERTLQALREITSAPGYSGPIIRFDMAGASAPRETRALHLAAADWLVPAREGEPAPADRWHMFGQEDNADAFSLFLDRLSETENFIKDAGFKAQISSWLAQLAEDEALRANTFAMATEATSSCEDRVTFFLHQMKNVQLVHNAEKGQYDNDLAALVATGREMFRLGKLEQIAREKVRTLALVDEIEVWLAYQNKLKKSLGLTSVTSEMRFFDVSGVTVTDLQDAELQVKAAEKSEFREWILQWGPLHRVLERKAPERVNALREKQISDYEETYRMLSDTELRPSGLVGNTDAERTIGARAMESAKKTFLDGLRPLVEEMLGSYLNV
T1 sequence (Q8VSC3 21-545): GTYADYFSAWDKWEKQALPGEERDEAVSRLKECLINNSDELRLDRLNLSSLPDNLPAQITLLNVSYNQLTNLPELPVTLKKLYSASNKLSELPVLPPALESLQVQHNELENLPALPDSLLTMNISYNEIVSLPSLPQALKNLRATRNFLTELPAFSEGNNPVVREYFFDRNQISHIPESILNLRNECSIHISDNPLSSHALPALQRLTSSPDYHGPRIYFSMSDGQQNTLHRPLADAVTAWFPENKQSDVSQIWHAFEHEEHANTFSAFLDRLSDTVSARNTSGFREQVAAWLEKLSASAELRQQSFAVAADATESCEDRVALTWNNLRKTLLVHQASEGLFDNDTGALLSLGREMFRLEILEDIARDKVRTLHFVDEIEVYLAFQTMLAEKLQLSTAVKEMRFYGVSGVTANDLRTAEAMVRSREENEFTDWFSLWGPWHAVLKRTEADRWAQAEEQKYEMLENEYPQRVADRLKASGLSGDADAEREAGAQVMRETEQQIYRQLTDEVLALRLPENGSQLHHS

Take `Cc1cc(-c2nc3ccccc3n2C2CCN(C(=O)CCl)CC2)cc(C)c1O.Cl` [compound 6]: on IpaH9.8 (21–545), the “labelling of IpaH9.8” value is listed as “minimal labelling”. Besides, the “labelling of SspH2” value at SspH2 was “very strong labelling”. On HECT-type E3 UBE3C, the “labelling of UBE3C” value is “minimal or no labelling”. In addition, the “labelling of HOIL” value on RBR-type E3 HOIL was “minimal or no labelling”.
Take `Cl.O=C(CCl)N1CCC(n2c(-c3ccc(C(F)(F)F)cc3)nc3ccccc32)CC1` [compound 7]: the “labelling of IpaH9.8” value at IpaH9.8 (21–545) was “minimal labelling”. Further, the “labelling of SspH2” value at SspH2 is given as “very strong labelling”. Further, the “labelling of UBE3C” value on HECT-type E3 UBE3C was “minimal or no labelling”. The “labelling of HOIL” value on RBR-type E3 HOIL is reported as “minimal or no labelling”.
